Assay results taken from patent US10154970B2, “Methods for immunomodulation of cancer and infectious disease therapy” (The Regents of the University of California, priority 2014, dated 2018).

Experiments:
[1] = test system: IFN-γ; assay: Experiment 4: IFN-γ ELISpot after short-course TRIP and PV in lung tumor-bearing mice; assay type: in vivo, human MUC1.Tg C57BL/6 mice; conditions: short-course (16-day) TRIP 10 or 50 mg/kg + one cycle of PV
Method: Effect of short-course (16-day) TRIP treatment on IFN-γ immune response. […] Lymphocytes were isolated following treatment with one cycle of PV, TRIP 10 mg/kg, TRIP 50 mg/kg, or combinations (n=10-11). PV=peptide vaccine.
A total of 65 male human MUC1.Tg C57BL/6 mice underwent urethane lung tumor induction as described (Wurz G T. et al., J. Transl. Med., 11:64 (2013)) starting at approximately five weeks of age. […] Starting in Week 20, all mice in the PV treatment groups were administered eight weekly 10 μg doses by subcutaneous (s.c.) injection (100 μl) at rotating sites using a 25-gauge needle. […] All other mice received daily oral doses of the control solution. Twenty-four hours after the final dose of TRIP and 48 hours after the last dose of PV (Week 27), all mice were euthanized for the collection of serum and spleens, which were processed appropriately for ELISpot and CTL assays. For the ELISpot assay, n=4-5.

[2] = test system: IL-4
Method: (§1) A total of 43 wild type C57BL/6 mice were assigned to four different treatment groups: Control (n=10); and TRIP (i.e., ospemifene) 10, 50, and 100 mg/kg (n=11, all TRIP groups). All mice received a full course of tecemotide (L-BLP25) peptide vaccine (PV) immunotherapy (eight weekly 10 μg doses administered subcutaneously (s.c.) as described in Wurz G T. et al., J. Transl. Med., 11:64 (2013)). During the final 16 days of immunotherapy, mice received daily oral doses of TRIP according to treatment group assignment. TRIP oral dosing solutions were prepared by dissolving an appropriate amount of the drug in pure dimethyl sulfoxide (DMSO) and then adding peanut oil to the desired final concentration (final DMSO concentration was 2%). All doses were administered in a volume of 100 μl using 20-gauge stainless steel oral feeding needles. Control mice were given diluent only. Forty-eight hours following the final dose of PV, all mice were euthanized for the collection of blood for cytokine analysis by multiplex and spleens for assessing immune response by enzyme-linked immunosorbent spot (ELISpot) assay.
Data are expressed as the number of spot forming cells (SFC)/500,000 lymphocytes following exposure to medium (no peptide), scrambled peptide, and BP25 peptide.

[3] = test system: mouse breast cancer cells expressing the PV target antigen (BP25); assay: Example 6: tumor volume of breast cancer allografts; assay type: in vivo, C57BL/6 wild type mice; conditions: three daily oral doses TRIP 100 mg/kg before each of four weekly 100 μg PV; Days 22 and 25
Method: Antitumor effects and serum IFN-γ immune response to peptide vaccine immunotherapy alone and in combination with TRIP immunomodulator. Each of four weekly 100-μg injections of peptide vaccine (PV) was preceded by three daily oral doses of TRIP (100 mg/kg). All mice were implanted with breast cancer allografts on Day 0, and serum was collected on Day 28 following four weeks of treatment. Tumor volumes were measured twice each week. For all treatment groups, n=8.
A total of 32 female C57BL/6 wild type mice were assigned to four treatment groups (n=8): Control; TRIP (i.e., ospemifene) 100 mg/kg; tecemotide (L-BLP25) peptide vaccine (PV) (100 μg); and TRIP 100 mg/kg combined with 100 μg PV. On Day 0 of the study, all 32 mice were subcutaneously implanted with 1.0×10^6 mouse breast cancer cells expressing the PV target antigen (BP25). Two days later, mice began a three-day regimen of once daily 100 mg/kg TRIP administered orally. On Day 5, mice were administered their first weekly 100 μg dose of PV by subcutaneous injection. This treatment schedule was repeated for a total of four weeks. Tumor growth was assessed twice weekly. All mice were euthanized on Day 28 for the collection of serum and spleens to assess immune response to treatment. Immune response was assessed by performing IFN-γ ELISpot.

[4] = test system: T-cell surface markers (CD4, CD8, PD-1, CD28); assay: Experiment 5: T-cell surface markers of spleen lymphocytes by flow cytometry; assay type: in vivo, human MUC1.Tg C57BL/6 mice; conditions: TRIP 100 mg/kg or letrozole 0.8 mg/kg daily oral 14 days
Method: FIG. 11. Lymphocyte phenotypes following different hormonal treatments. (A) CD3+CD4+; (B) CD3+CD8+; (C) CD3+CD28+; (D) CD8+CD28+; (E) CD3+PD-1+; and (F) CD8+PD-1+; T cell surface markers were stained with indicated antibodies after […] of TRIP (100 mg/kg), estradiol (E2; 25 μg/kg), and letrozole (0.8 mg/kg) treatments (n=8 all groups).
(§2) A total of 32 female human MUC1.Tg C57BL/6 mice, starting at approximately six weeks of age, were treated with urethane as described (Wurz G T. et al., J. Transl. Med., 11:64 (2013)). Two weeks following the final dose of urethane (Week 17), the mice were randomized into four treatment groups of approximately equal average weight (n=8, all groups): Control (no treatment); TRIP (i.e., ospemifene) 100 mg/kg; estradiol 25 μg/kg; and letrozole 0.8 mg/kg. TRIP and letrozole were prepared in DMSO and peanut oil as described above in Experiment 2 and administered daily for 14 days by oral gavage (100 μL). Estradiol was dissolved in 100% ethanol, diluted in PBS to achieve the desired concentration, and then administered daily for 14 days by s.c. injection at rotating sites using a 25-gauge needle. In Week 19, the study was terminated, 24 hours after the last treatments, and serum and spleens were collected for surface marker and Treg analyses.
(§3) After two weeks of treatment, lymphocytes were isolated from spleen. T-cell surface markers (CD4, CD8, PD-1, CD28) and regulatory T cells (Tregs) were analyzed by flow cytometry.

[5] = test system: regulatory T cells (Tregs); assay: Experiment 5: regulatory T cells (FoxP3+/CD4+) by flow cytometry; assay type: in vivo, human MUC1.Tg C57BL/6 mice; conditions: TRIP 100 mg/kg or letrozole 0.8 mg/kg daily oral 14 days
Method: as §2, §3

[6] = test system: IFN-γ; assay: Experiment 5: serum IFN-γ cytokine analysis; assay type: in vivo, human MUC1.Tg C57BL/6 mice; conditions: TRIP 100 mg/kg or letrozole 0.8 mg/kg daily oral 14 days
Method: FIG. 13. Effects of TRIP on serum IFN-γ compared to estradiol and letrozole. Serum IFN-γ from untreated control, TRIP (100 mg/kg), estradiol (E2; 25 μg/kg), and letrozole (0.8 mg/kg) groups were analyzed following daily treatment for 14 days (n=8 all groups). **p<0.01, ***p<0.001.
TRIP and letrozole were prepared in DMSO and peanut oil as described above in Experiment 2 and administered daily for 14 days by oral gavage (100 μL). Estradiol was dissolved in 100% ethanol, diluted in PBS to achieve the desired concentration, and then administered daily for 14 days by s.c. injection at rotating sites using a 25-gauge needle. In Week 19, the study was terminated, 24 hours after the last treatments, and serum and spleens were collected for surface marker and Treg analyses.

[7] = test system: IFN-γ; assay: Example 6: serum IFN-γ on Day 28 in allograft-bearing mice; assay type: in vivo, C57BL/6 wild type mice; conditions: Day 28, 48 hours after final PV dose; TRIP 100 mg/kg
Method: Each of four weekly 100-μg injections of peptide vaccine (PV) was preceded by three daily oral doses of TRIP (100 mg/kg). All mice were implanted with breast cancer allografts on Day 0, and serum was collected on Day 28 following four weeks of treatment. […] For all treatment groups, n=8.
A total of 32 female C57BL/6 wild type mice were assigned to four treatment groups (n=8): Control; TRIP (i.e., ospemifene) 100 mg/kg; tecemotide (L-BLP25) peptide vaccine (PV) (100 μg); and TRIP 100 mg/kg combined with 100 μg PV. On Day 0 of the study, all 32 mice were subcutaneously implanted with 1.0×10^6 mouse breast cancer cells expressing the PV target antigen (BP25). Two days later, mice began a three-day regimen of once daily 100 mg/kg TRIP administered orally. On Day 5, mice were administered their first weekly 100 μg dose of PV by subcutaneous injection. This treatment schedule was repeated for a total of four weeks. […] All mice were euthanized on Day 28 for the collection of serum and spleens to assess immune response to treatment. Immune response was assessed by performing IFN-γ ELISpot.

[8] = test system: IL-6
Method: (§4) FIG. 6. Effect of TRIP and PV combination treatment on serum cytokine levels. Serum cytokines were assessed by multiplex immunoassay 48 hours following the final dose of PV, which was administered as 8 weekly 10-μg doses. TRIP was administered daily for the last 14 days of the study.
as §1

[9] = test system: IFN-γ; conditions: non-tumor bearing mice, 48 hours after final PV dose
Method: as §4, §1

`OCCOc1ccc(/C(=C(/CCCl)c2ccccc2)c2ccccc2)cc1` [TRIP, Z-2-[4-(4-chloro-1,2-diphenyl-but-1-enyl)-phenoxy]ethanol] was tested, and the “IFN-γ immune response by ELISpot, TRIP in combination with the PV” value [1] was “equivalent increase”, the “IL-4 response, PV + 50 mg/kg TRIP vs PV alone” value ([2]; TRIP 50 mg/kg daily oral final 16 days + PV) was “No significant difference” and the “IL-4 immune response by ELISpot, TRIP combined with PV” value ([2]; TRIP 10, 50, 100 mg/kg daily oral final 16 days + 8 weekly 10 μg PV s.c.) was “decrease with TRIP dose”. The “tumor volume compared to the control group, PV in combination with TRIP” value [3] was “reduced tumor volume”, the “expression of surface markers, including CD8 and CD28, vs control” value [4] was “no difference” and the “Tregs (FoxP3+/CD4+) compared to estradiol treatment” value [5] was “significantly inhibited”. For the same compound, the “serum IFN-γ concentrations compared to estradiol” value [6] was “significantly increased”, the “serum IFN-γ compared to the control and TRIP alone treatment groups, TRIP + PV” value [7] was “significantly increased” and the “serum concentrations of IL-6, TRIP 100 mg/kg and PV compared to PV alone” value ([8]; TRIP 100 mg/kg + PV) was “significantly lower”. For the same compound, the “serum IL-6 concentrations, TRIP and PV vs PV alone” value ([8]; non-tumor bearing mice, 48 hours after final PV dose) was “dose-dependently decreased” and the “serum IFN-γ levels, TRIP and PV vs PV alone” value [9] was “increased”.
